Results on 30 compounds are retold here after patent publication US11028079B2 (ConverGene LLC, priority 2015, dated 2021).

This test concerns the target T1, BRD4 bromodomains (Homo sapiens, UniProt O60885).
T1 construct: fused on or other part: T7 phage capsid protein (phage-display fusion; the phage DNA is read out by qPCR)
Nature of the test: BROMOscan bromodomain competition binding assay (DiscoveRx). The conditions noted are these: Kd from 11 compound concentrations ranging from 0 to 10 μM, read-out: BROMOscan Relative Activity. The method in brief:
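Compounds in 0.1% DMSO/0.9% MEG competed with a solid-phase acetylated peptide for T7 phage-fused BRD4 bromodomains, with the retained bromodomain measured by qPCR.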
As for `Cc1noc(C)c1-c1ccc2nc(N3CCN(S(C)(=O)=O)CC3)nc(N3CCOC[C@H]3c3ccccc3)c2c1` [Example 268, (R)-4-(6-(3,5-dimethylisoxazol-4-yl)-2-(4-(methylsulfonyl)piperazin-1-yl)quinazolin-4-yl)-3-phenylmorpholine], the Kd is below 500 nM.
Take `Cc1noc(C)c1-c1ccc2nc(-c3cnn(CC(C)(C)O)c3)nc(N(Cc3cccc(Cl)c3)C3CC3)c2c1` [Example 312, 1-(4-(4-((3-chlorobenzyl)(cyclopropyl)amino)-6-(3,5-dimethylisoxazol-4-yl)quinazolin-2-yl)-1H-pyrazol-1-yl)-2-methylpropan-2-ol]: the Kd was below 500 nM.
Next, `Cc1noc(C)c1-c1ccc2nc(NC3CCN(C)CC3)nc(NCc3cccc(Cl)c3)c2c1` [Example 7, N4-(3-chlorobenzyl)-6-(3,5-dimethylisoxazol-4-yl)-N2-(1-methylpiperidin-4-yl)quinazoline-2,4-diamine]: below 500 nM; `Cc1noc(C)c1-c1ccc2nccc(NCc3cccc(Cl)c3)c2c1` [Example 3, N-(3-chlorobenzyl)-6-(3,5-dimethylisoxazol-4-yl)quinolin-4-amine]: 500 to 5000 nM.
Next, `Cc1noc(C)c1-c1ccc2nc(-c3cnn(CS(C)(=O)=O)c3)nc(N3CCOC[C@@H]3c3ccccc3)c2c1` [Example 302, (S)-4-(6-(3,5-dimethylisoxazol-4-yl)-2-(1-((methylsulfonyl)methyl)-1H-pyrazol-4-yl)quinazolin-4-yl)-3-phenylmorpholine]: below 500 nM; `Cc1noc(C)c1-c1ccc2nc(C(=O)N3CCc4[nH]ncc4C3)cc(NCc3cccc(Cl)c3)c2c1` [Example 288, (4-((3-chlorobenzyl)amino)-6-(3,5-dimethylisoxazol-4-yl)quinolin-2-yl)(1,4,6,7-tetrahydro-5H-pyrazolo[4,3-c]pyridin-5-yl)methanone]: 500 to 5000 nM.
Next, `Cc1cncc(CNc2nc(N3CCN(CCN(C)C)CC3)nc3ccc(-c4c(C)noc4C)cc23)c1` [Example 115, 2-(4-(2-(dimethylamino)ethyl)piperazin-1-yl)-6-(3,5-dimethylisoxazol-4-yl)-N-((5-methylpyridin-3-yl)methyl)quinazolin-4-amine]: below 500 nM; `Cc1noc(C)c1-c1ccc2nc(N3CCN(CCO)CC3)nc(NCc3cccc(Cl)c3)c2c1` [Example 20, 2-(4-(4-((3-chlorobenzyl)amino)-6-(3,5-dimethylisoxazol-4-yl)quinazolin-2-yl)piperazin-1-yl)ethanol]: below 500 nM.
As for `CNC(=O)C1CCN(c2nc(N3CCOC[C@@H]3c3ccccc3)c3cc(-c4c(C)noc4C)ccc3n2)CC1` [Example 296, (S)-1-(6-(3,5-dimethylisoxazol-4-yl)-4-(3-phenylmorpholino)quinazolin-2-yl)-N-methylpiperidine-4-carboxamide], the Kd is below 500 nM.
With `CN(C)CCN1CCN(c2nc(NCc3cccc(Cl)c3)c3cc(Br)ccc3n2)CC1` [Example 19, 6-bromo-N-(3-chlorobenzyl)-2-(4-(2-(dimethylamino)ethyl)piperazin-1-yl)quinazolin-4-amine], the Kd is above 5000 nM.
Then `Cn1cc(-c2ccc3nc(N4CCN(CC(N)=O)CC4)nc(NCc4cncc(Cl)c4)c3c2)ccc1=O` [Example 127, 2-(4-(4-(((5-chloropyridin-3-yl)methyl)amino)-6-(1-methyl-6-oxo-1,6-dihydropyridin-3-yl)quinazolin-2-yl)piperazin-1-yl)acetamide], with below 500 nM; and `Cn1cc(-c2ccc3nc(-c4cnn(CC(C)(C)O)c4)nc(NCc4cncc(Cl)c4)c3c2)ccc1=O` [Example 148, 5-(4-(((5-chloropyridin-3-yl)methyl)amino)-2-(1-(2-hydroxy-2-methylpropyl)-1H-pyrazol-4-yl)quinazolin-6-yl)-1-methylpyridin-2(1H)-one], with 500 to 5000 nM; and `Cc1noc(C)c1-c1ccc2nc(C(=O)N[C@H]3CC[C@H](O)CC3)nc(NCc3cccc(Cl)c3)c2c1` [Example 250, 4-((3-chlorobenzyl)amino)-6-(3,5-dimethylisoxazol-4-yl)-N-((trans)-4-hydroxycyclohexyl)quinazoline-2-carboxamide], with below 500 nM.
On to `Cc1noc(C)c1-c1ccc2nc(N3CCN(CCN(C)C)CC3)nc(NCc3cncc(Cl)c3)c2c1` [Example 81, N-((5-chloropyridin-3-yl)methyl)-2-(4-(2-(dimethylamino)ethyl)piperazin-1-yl)-6-(3,5-dimethylisoxazol-4-yl)quinazolin-4-amine], for which the Kd was below 500 nM.
In the case of `CNC(=O)C1CCN(c2nc(N3CCN(CCN(C)C)CC3)nc3ccc(-c4c(C)noc4C)cc23)CC1` [Example 267, 1-(2-(4-(2-(dimethylamino)ethyl)piperazin-1-yl)-6-(3,5-dimethylisoxazol-4-yl)quinazolin-4-yl)-N-methylpiperidine-4-carboxamide], the Kd is below 500 nM.
Then `Cc1noc(C)c1-c1ccc2nc(N3CCN(C(=O)c4cccnc4)CC3)nc(NCc3cccc(Cl)c3)c2c1` [Example 35, (4-(4-((3-chlorobenzyl)amino)-6-(3,5-dimethylisoxazol-4-yl)quinazolin-2-yl)piperazin-1-yl)(pyridin-3-yl)methanone], with below 500 nM.
Turning to `Cc1noc(C)c1-c1ccc2nc(-c3cnn(C(C)(C)CO)c3)nc(NCc3cccc(Cl)c3)c2c1` [Example 62, 2-(4-(4-((3-chlorobenzyl)amino)-6-(3,5-dimethylisoxazol-4-yl)quinazolin-2-yl)-1H-pyrazol-1-yl)-2-methylpropan-1-ol], the Kd was below 500 nM.
As to `CN(C)CCCN1CCN(c2nc(NCc3cncc(Cl)c3)c3cc(-c4ccc(=O)n(C)c4)ccc3n2)CC1` [Example 125, 5-(4-(((5-chloropyridin-3-yl)methyl)amino)-2-(4-(3-(dimethylamino)propyl)piperazin-1-yl)quinazolin-6-yl)-1-methylpyridin-2(1H)-one], the Kd was below 500 nM.
As for `CNC(=O)CN1CCN(c2nc(NCc3cccc(Cl)c3)c3cc(-c4c(C)noc4C)ccc3n2)CC1` [Example 53, 2-(4-(4-((3-chlorobenzyl)amino)-6-(3,5-dimethylisoxazol-4-yl)quinazolin-2-yl)piperazin-1-yl)-N-methylacetamide], the Kd is below 500 nM.
Then `Cc1noc(C)c1-c1ccc2nc(N3CCN(CCN(C)C)CC3)nc(NCc3ccc(Cl)s3)c2c1` [Example 94, N-((5-chlorothiophen-2-yl)methyl)-2-(4-(2-(dimethylamino)ethyl)piperazin-1-yl)-6-(3,5-dimethylisoxazol-4-yl)quinazolin-4-amine], with below 500 nM; and `Cc1noc(C)c1-c1ccc2nc(N3CCN(C(=O)CO)CC3)nc(NCc3cccc(Cl)c3)c2c1` [Example 36, 1-(4-(4-((3-chlorobenzyl)amino)-6-(3,5-dimethylisoxazol-4-yl)quinazolin-2-yl)piperazin-1-yl)-2-hydroxyethanone], with below 500 nM; and `Cc1noc(C)c1-c1ccc2nc(C(=O)NC3CCOCC3)cc(NCc3cccc(Cl)c3)c2c1` [Example 236, 4-((3-chlorobenzyl)amino)-6-(3,5-dimethylisoxazol-4-yl)-N-(tetrahydro-2H-pyran-4-yl)quinoline-2-carboxamide], with below 500 nM.
Then `Cc1noc(C)c1-c1ccc2nc(N3CCc4c(cnn4C)C3)nc(NCc3cccc(Cl)c3)c2c1` [Example 278, N-(3-chlorobenzyl)-6-(3,5-dimethylisoxazol-4-yl)-2-(1-methyl-1,4,6,7-tetrahydro-5H-pyrazolo[4,3-c]pyridin-5-yl)quinazolin-4-amine], with 500 to 5000 nM; and `Cc1noc(C)c1-c1ccc2nc(N3CCN(C)CC3)nc(NCc3cccc(Cl)c3)c2c1` [Example 6, N-(3-chlorobenzyl)-6-(3,5-dimethylisoxazol-4-yl)-2-(4-methylpiperazin-1-yl)quinazolin-4-amine], with below 500 nM.
Take `Cc1noc(C)c1-c1ccc2nc(-c3cnn(CC(C)(C)O)c3)nc(N3CCN(S(C)(=O)=O)C[C@@H]3c3ccccc3)c2c1` [Example 310, (S)-1-(4-(6-(3,5-dimethylisoxazol-4-yl)-4-(4-(methylsulfonyl)-2-phenylpiperazin-1-yl)quinazolin-2-yl)-1H-pyrazol-1-yl)-2-methylpropan-2-ol]: the Kd is below 500 nM.
Turning to `Cc1noc(C)c1-c1ccc2nc(C(=O)Nc3cnn(C)c3)nc(NCc3cccc(Cl)c3)c2c1` [Example 225, 4-((3-chlorobenzyl)amino)-6-(3,5-dimethylisoxazol-4-yl)-N-(1-methyl-1H-pyrazol-4-yl)quinazoline-2-carboxamide], the Kd was below 500 nM.
Next, `Cc1ccc(CNC(=O)c2nc(NCc3cccc(Cl)c3)c3cc(-c4c(C)noc4C)ccc3n2)cn1` [Example 197, 4-((3-chlorobenzyl)amino)-6-(3,5-dimethylisoxazol-4-yl)-N-((6-methylpyridin-3-yl)methyl)quinazoline-2-carboxamide]: below 500 nM; `Cc1noc(C)c1-c1ccc2nc(N3CCN(CC(=O)N(C)C)CC3)nc(NCc3cncc(Cl)c3)c2c1` [Example 119, 2-(4-(4-(((5-chloropyridin-3-yl)methyl)amino)-6-(3,5-dimethylisoxazol-4-yl)quinazolin-2-yl)piperazin-1-yl)-N,N-dimethylacetamide]: below 500 nM; `Cc1noc(C)c1-c1ccc2nc(-c3ccc(CO)nc3)nc(N3CCOC[C@@H]3c3ccccc3)c2c1` [Example 321, (S)-(5-(6-(3,5-dimethylisoxazol-4-yl)-4-(3-phenylmorpholino)quinazolin-2-yl)pyridin-2-yl)methanol]: below 500 nM.
In the case of `Cn1cc(-c2ccc3nc(N4CCN(CC(N)=O)CC4)nc(NCc4cccc(Cl)c4)c3c2)ccc1=O` [Example 108, 2-(4-(4-((3-chlorobenzyl)amino)-6-(1-methyl-6-oxo-1,6-dihydropyridin-3-yl)quinazolin-2-yl)piperazin-1-yl)acetamide], the Kd is below 500 nM.
